This note sets out measurements from patent US20250170265A1 (priority 2023, published 2025).

“And” between values parts separate entries of the source, which are not always exact repeats. Equal values may be shown once. Read-outs that look alike come from different tables or passages of the source. Some results are limits rather than exact numbers.

One data set deals with pBR322. Format: biochemical.
Data set [1] deals with supercoiled pBR322 plasmid DNA. Format: biochemical.
Data set [2] in a line: Stability of diazonium compounds (NMR in D2O with acetonitrile internal standard). Format: physicochemical.
The subject of data set [3] is supercoiled pBR322 plasmid DNA. Conditions: read-out: EC50 value.
Data set [4] has as its system supercoiled pBR322 plasmid DNA.
The subject of data set [5] is linearized (EcoRV-HF-digested) pBR322 double stranded DNA.
The subject of data set [6] is supercoiled pBR322 plasmid DNA. Conditions: for EC50: 525 nm.

Experimental for HeLa cells: General cell culture protocol: HeLa cells were grown in DMEM growth media (GIBCO 11995065) with 10% FBS (GIBCO A5670401) in 75 cm^2 surface treated culture dishes (Fisherbrand FB012937) and were incubated in a cell culture chamber (37° C. with 5% CO2). Cells were kept at a maximum confluency of 80% and passaged up to 20 times. For each passage, the cells were washed with 1×PBS (GIBCO 20012027), detached from the plate by incubation with 0.25% Trypsin-EDTA (GIBCO 25200072) for 3-4 minutes in the cell culture chamber, and then diluted with growth media. The cells were spun down at 300×g at 4° C. for 5 minutes, resuspended with fresh growth media, and replated in a new flask.
Cell viability assay and IC50 procedure: The media in the cell culture dish was aspirated, and the cells were washed with 1×PBS. The cells were detached from the plate by 4-minute incubation with 0.25% Trypsin-EDTA in the cell culture chamber. The cells were then diluted with DMEM and were spun down at 300×g at 4° C. for 5 minutes. The media was aspirated, and the cell pellet was resuspended in fresh DMEM. The cells were counted and seeded in 6-well culture plates at 50,000 cells/well and incubated overnight. Alongside the 6-well plates, 35 mm glass bottom confocal plates (Fisher Scientific NC0409658) were also seeded with 50,000 cells/plate. 24 hours after the initial seeding, the media in the plates were aspirated and the cells were washed with 1×PBS. […] The wash buffer was aspirated from the plates and 2 mL of the corresponding diazonium dilutions was added to the respective wells in the 6-well plates, all in triplicate, in addition to the confocal plates. All plates were incubated in ambient light for 45 minutes in the cell culture hood and then for 1 hour in the cell culture chamber (37° C. with 5% CO2). Control wells with 2 mL 1×PBS pH 6.6 alone with no diazonium as well as additional control wells with 2 mL DMEM alone with no diazonium, all in triplicate, were also incubated alongside the wells with the diazonium solutions. The plates were then removed from the incubators and the solutions from all the dishes were aspirated and replaced with 2 mL of fresh DMEM. The plates were incubated in the cell culture chamber for 3 days. After the 3-day incubation, the respective cell viability of each well was measured using the PrestoBlue™ Cell Viability Procedure. To each well was added 200 μL of 10× PrestoBlue™ Cell Viability Reagent (ThermoFisher Scientific A13261) and the plates were then incubated in the cell culture chamber for 3 hours. The plates were then analyzed using a plate reader (SpectraMax iD5) by measuring the fluorescence at an excitation of 560 nm and emission of 590 nm. […]

With `Nc1cccc2c(N)cccc12` [1,5-diaminonaphthalene, reference compound], the “cleavage of pBR322 (gel pattern)” value with pBR322 is “no cleavage was observed”.
A word on the EC50: it is the concentration giving half of the maximal effect. Take `F[B-](F)(F)F.N#[N+]c1ccccc1` [Compound 1, benzenediazonium tetrafluoroborate]: in data set [1], the “DNA cleavage potency (in words)” value is listed as “limited activity”. For the same molecule, the EC50 in data set [1] (read-out: EC50) is 18800 nM.
With `COc1ccc([N+]#N)cc1.F[B-](F)(F)F` [Compound 5, 4-methoxy-benzene-1-diazonium tetrafluoroborate], the EC50 in data set [1] (read-out: EC50 value) worked out at 69800 nM.
Turning to `N#[N+]c1ccc([N+](=O)[O-])c2ccccc12` [Compound 7, 4-nitro-naphthalene-1-diazonium tetrafluoroborate], the EC50 in data set [1] (read-out: EC50 value) was found to be 531 nM.
Regarding `F[B-](F)(F)F.F[B-](F)(F)F.N#[N+]c1cccc2c([N+]#N)cccc12` [Compound 10, naphthalene-1,5-bisdiazonium tetrafluoroborate], the EC50 in data set [1] (read-out: EC50 value) amounted to 31.7 nM. The diazonium/IS ratio in data set [2] (1 hour) was found to be 0.59; in data set [2] (2 hours), 0.56; in data set [2] (6 hours) it was 0.49; in data set [2] (24 hours), 0.41; in data set [2] (T0 (immediately after sample preparation)) it was 0.62. Further, the “cleavage of pBR322 (gel pattern)” value in the data set on pBR322 (500 nM, 525 nm irradiation 1.5 hours) is listed as “two new bands”.
In the case of “(R)-[1,1′-binaphthalene]-2,2′-bisdiazonium tetrafluoroborate [Compound 23]”, the EC50 in data set [1] (read-out: EC50 value) came out at 42 nM.
Consider “(S)-[1,1′-binaphthalene]-2,2′-bisdiazonium tetrafluoroborate [Compound 24]”, for which the EC50 in data set [1] (read-out: EC50 value) came out at 140 nM.
As for “N^1,N^3,N^5-tris(benzene-4-diazonium)benzene-1,3,5-tricarboxamide tetrafluoroborate [Compound 29]”, the “DNA cleavage potency (in words)” value in data set [1] is given as “no notable improvement”. Besides, the EC50 in data set [1] (read-out: EC50 value) is 101 nM.
On to “benzophenone-3,3′-bisdiazonium tetrafluoroborate [Compound 18]”, for which the EC50 in data set [1] (read-out: EC50 value) is 31.5 nM.
Still for that read-out and setting: the same measure for “benzophenone-4,4′-bisdiazonium tetrafluoroborate [Compound 17]”: 24 nM.
In the case of “ethidium bisdiazonium tetrafluoroborate [Compound 26]”, the “DNA cleavage potency (in words)” value in data set [1] was “only modest potency”. In addition, the EC50 in data set [1] (read-out: EC50 value) is 136 nM.
For the molecule “tetrakis(benzene-4-diazonium)ethylene tetrafluoroborate [Compound 27]”, the “DNA cleavage potency (in words)” value in data set [1] was “excellent potency”. Moreover, the EC50 in data set [1] (read-out: EC50 value) was found to be 33 nM.
One may read the IC50 as the concentration needed to halve the response being measured. For “tetrakis(benzene-4-diazonium)methane tetrafluoroborate [Compound 28]”, the “DNA cleavage potency (in words)” value in data set [1] is recorded as “excellent potency”. Besides, the EC50 was 0.00214 µg/mL in data set [1]; 2.76 nM in data set [1] (read-out: EC50 value); 3.62 nM and 13.7 nM and 14.9 nM in data set [3]; 976 nM and ~1000 nM and 1000 nM in data set [4] (read-out: DNA cleavage EC50 value, in the dark without cysteine); 30.8 nM in data set [4] (read-out: EC50 value, presence of cysteine in the dark); 126 nM in data set [5] (read-out: EC50 value, linearized pBR322, green light 525 nm, supercoiled pBR322 as internal standard). Also, the EC50 turned out to be 172 nM in data set [6] (degassed deionized water) and 1.64 nM in data set [6] (standard deionized water, run alongside as control). Moreover, the “concentrations giving noticeable cleavage into low molecular weight fragments” value in data set [5] (pre-linearized pBR322 (Form III, 40 μM/bp), 525 nm light in water for 1 hour) is given as ≥ 100 nM. Moreover, the results for the “plate confluency after 3 days” value in the data set on HeLa cells (1.25 μM) and with HeLa cells (10 μM) were “over 90%” and “less than 10%”, respectively. The “IC50 (cell viability)” value in the data set on HeLa cells (ambient light 45 min then 1 h at 37° C., 3-day incubation) was found to be 5.23 µg/mL. For the same molecule, in the data set on HeLa cells (read-out: IC50 (cell viability), ambient light 45 min then 1 h at 37° C., 3-day incubation), the IC50 turned out to be 6710 nM. Further, the “decrease in activity, degassed vs standard deionized water” value in data set [6] was 2 log scale.
